Experimental findings from patent US20260109707A1, “HETEROBIFUNCTIONAL COMPOUNDS AND METHODS OF TREATING DISEASE” (Halda Therapeutics OpCo. Inc., priority 2022, published 2026) are described below.

For assay [1], the system named is T-Rex 293 cell line SC3 cells having increased expression of androgen receptor protein due to exposure to doxycycline. Description: Cellular growth inhibition assay, T-Rex 293 SC3 cells with doxycycline (CellTiter-Glo, 72 hours). It counts as cell-based. The settings on record: 72 h, T-Rex 293 SC3 cells with increased androgen receptor expression due to doxycycline (10 ng/mL). The procedure, abridged:
(§1)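 Growth inhibition is measured in an inducible AR-expressing T-Rex 293 clone, SC3, cultured with or without 10 ng/mL doxycycline in hormone-depleted medium. Test compounds are applied for 72 hours. GI50 values derive from CellTiter-Glo 2.0 signal fitted by four-parameter regression.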

The test system of assay [2] is T-Rex 293 cell line SC3 cells lacking increased expression of androgen receptor protein. Description: Cellular growth inhibition assay, T-Rex 293 SC3 cells without doxycycline (CellTiter-Glo, 72 hours). The assay is classed as cell-based. The following applies: 72 h, T-Rex 293 cell line SC3 cells not exposed to doxycycline (lacking increased androgen receptor expression). In short, it runs like this:
as §1

The next assay concerns T47D cells. The experiment in a line: Cellular growth inhibition assay for T47D cells (CellTiter-Glo, 72 hours). It counts as cell-based, human. The following applies: Homo sapiens, T47D, 72 h, 72 hours treatment. In short, it runs like this: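 Luminescence from CellTiter-Glo 2.0 after 72 h of compound exposure gives the viability signal. Cells grew in insulin-supplemented (0.2 units/mL) DMEM with 10% FBS and were treated one day after seeding at 0.5% DMSO. GI50 values come from four-parameter nonlinear regression.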

In another assay the test system is VCaP cells. The experiment in a line: Cellular growth inhibition assay for VCaP cells (CellTiter-Glo, 72 hours). The settings on record: Homo sapiens, VCaP, 72 h. The assay is classed as cell-based, human. The procedure, abridged: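 Luminescent viability signal after 72 h of compound exposure gave GI50 values by four-parameter nonlinear regression. Compounds were added in 0.5% DMSO to cells plated 24 h earlier at 5000/well in DMEM containing 10% FBS.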

As to `Cc1sc2c(c1C)C(c1ccc(-c3ccc(C4CCN(c5ccc(C(=O)NC6CCC(Oc7ccc(C#N)c(Cl)c7)CC6)nn5)CC4)cc3)cc1)=N[C@@H](Cc1ncco1)c1nnc(C)n1-2` (stereo partly shown) [I-369], the GI50 in assay [1] is over 3000 nM; in assay [2] it was over 3000 nM; with T47D cells it was over 3000 nM; in the assay on VCaP cells, under 500 nM.
Take `Cc1sc2c(c1C)C(c1ccc(-c3ccc(C4CCN(c5ccc(C(=O)NC6CCC(Oc7ccc(C#N)c(Cl)c7)CC6)nn5)CC4)cc3)cc1)=N[C@H](Cc1ncco1)c1nnc(C)n1-2` (stereo partly shown) [I-370]: the GI50 in assay [1] was under 500 nM; in assay [2], over 3000 nM; in the assay on T47D cells it was 500 to 1500 nM; with VCaP cells it was over 3000 nM.
In the case of `Cc1sc2c(c1C)C(c1ccc([C@H]3C[C@@H](C4CCN(c5ccc(C(=O)N[C@H]6CC[C@H](Oc7ccc(C#N)c(Cl)c7)CC6)nn5)CC4)C3)cc1)=N[C@@H](Cc1ncco1)c1nnc(C)n1-2` [I-371], the GI50 (in assay [1]; in assay [2]; in the assay on T47D cells; in the assay on VCaP cells) was over 3000 nM in each case.
As to `Cc1sc2c(c1C)C(c1ccc([C@H]3C[C@@H](C4CCN(c5ccc(C(=O)N[C@H]6CC[C@H](Oc7ccc(C#N)c(Cl)c7)CC6)nn5)CC4)C3)cc1)=N[C@H](Cc1ncco1)c1nnc(C)n1-2` [I-372], the GI50 (in assay [1]; in assay [2]; in the assay with T47D cells; in the assay with VCaP cells) was under 500 nM each time.
`Cc1sc2c(c1C)C(c1ccc([C@H]3C[C@H](C4CCN(c5ccc(C(=O)N[C@H]6CC[C@H](Oc7ccc(C#N)c(Cl)c7)CC6)nn5)CC4)C3)cc1)=N[C@@H](Cc1ncco1)c1nnc(C)n1-2` [I-373]: the GI50 in assay [1] is under 500 nM; in assay [2] it was over 3000 nM; in the assay on T47D cells, under 500 nM; in the assay on VCaP cells, under 500 nM.
In the case of `Cc1sc2c(c1C)C(c1ccc([C@H]3C[C@@H]([C@@H]4CCCN(c5ccc(C(=O)N[C@H]6CC[C@H](Oc7ccc(C#N)c(Cl)c7)CC6)nn5)C4)C3)cc1)=N[C@@H](Cc1ncco1)c1nnc(C)n1-2` [I-374], the GI50 (in assay [1]; in assay [2]; with T47D cells; in the assay with VCaP cells) was over 3000 nM each time.
Regarding `Cc1sc2c(c1C)C(c1ccc([C@H]3C[C@H]([C@H]4CCCN(c5ccc(C(=O)N[C@H]6CC[C@H](Oc7ccc(C#N)c(Cl)c7)CC6)nn5)C4)C3)cc1)=N[C@@H](Cc1ncco1)c1nnc(C)n1-2` [I-375], the GI50 was under 500 nM in assay [1], over 3000 nM in assay [2], over 3000 nM in the assay with T47D cells and under 500 nM in the assay with VCaP cells.
As for `Cc1sc2c(c1C)C(c1ccc([C@H]3C[C@@H]([C@H]4CCCN(c5ccc(C(=O)N[C@H]6CC[C@H](Oc7ccc(C#N)c(Cl)c7)CC6)nn5)C4)C3)cc1)=N[C@@H](Cc1ncco1)c1nnc(C)n1-2` [I-376], the GI50 (in assay [1]; in assay [2]; with T47D cells; in the assay on VCaP cells) was under 500 nM each time.
As for `Cc1sc2c(c1C)C(c1ccc([C@H]3C[C@H]([C@@H]4CCCN(c5ccc(C(=O)N[C@H]6CC[C@H](Oc7ccc(C#N)c(Cl)c7)CC6)nn5)C4)C3)cc1)=N[C@@H](Cc1ncco1)c1nnc(C)n1-2` [I-377], the GI50 (in assay [1]; in assay [2]; in the assay with T47D cells; in the assay with VCaP cells) was under 500 nM in each case.
As for `Cc1sc2c(c1C)C(c1ccc(C3CC([C@@H]4CCCN(c5ccc(C(=O)N[C@H]6CC[C@H](Oc7ccc(C#N)c(Cl)c7)CC6)nn5)C4)C3)cc1)=N[C@@H](Cc1ncco1)c1nnc(C)n1-2` (stereo partly shown) [I-378], the GI50 in assay [1] was under 500 nM; in assay [2], over 3000 nM; with T47D cells, 500 to 1500 nM; with VCaP cells, under 500 nM.
Consider `Cc1sc2c(c1C)C(c1ccc(CCN3[C@@H](C)CN(c4ccc(C(=O)N[C@H]5CC[C@H](Oc6ccc(C#N)c(Cl)c6)CC5)nn4)C[C@@H]3C)cc1)=N[C@@H](Cc1ncco1)c1nnc(C)n1-2` [I-379], for which the GI50 (in assay [1]; in assay [2]; in the assay on T47D cells; in the assay on VCaP cells) was under 500 nM in each case.
As to `Cc1sc2c(c1C)C(c1ccc([C@H]3C[C@@H](C4CC5(CCN(c6ccc(C(=O)N[C@H]7CC[C@H](Oc8ccc(C#N)c(Cl)c8)CC7)nn6)CC5)C4)C3)cc1)=N[C@@H](Cc1ncco1)c1nnc(C)n1-2` [I-380], the GI50 (in assay [1]; in assay [2]; in the assay with T47D cells; in the assay on VCaP cells) was over 3000 nM in each case.
As to `Cc1sc2c(c1C)C(c1ccc([C@H]3C[C@H](C4CC5(CCN(c6ccc(C(=O)N[C@H]7CC[C@H](Oc8ccc(C#N)c(Cl)c8)CC7)nn6)CC5)C4)C3)cc1)=N[C@@H](Cc1ncco1)c1nnc(C)n1-2` [I-381], the GI50 (in assay [1]; in assay [2]; in the assay on T47D cells; in the assay with VCaP cells) was over 3000 nM each time.
With `Cc1sc2c(c1C)C(c1ccc([C@H]3C[C@@H](C4CC5(CCN(c6ccc(C(=O)N[C@H]7CC[C@H](Oc8ccc(C#N)c(Cl)c8)CC7)nn6)CC5)C4)C3)cc1)=N[C@H](Cc1ncco1)c1nnc(C)n1-2` [I-382], the GI50 was under 500 nM in assay [1], over 3000 nM in assay [2], under 500 nM in the assay on T47D cells and 500 to 1500 nM in the assay with VCaP cells.
As to `Cc1sc2c(c1C)C(c1ccc([C@H]3C[C@H](C4CC5(CCN(c6ccc(C(=O)N[C@H]7CC[C@H](Oc8ccc(C#N)c(Cl)c8)CC7)nn6)CC5)C4)C3)cc1)=N[C@H](Cc1ncco1)c1nnc(C)n1-2` [I-383], the GI50 was under 500 nM in assay [1], over 3000 nM in assay [2], under 500 nM in the assay with T47D cells and under 500 nM with VCaP cells.
Turning to `Cc1sc2c(c1C)C(c1ccc(C[C@H]3C[C@]4(CCCN(c5ccc(C(=O)N[C@H]6CC[C@H](Oc7ccc(C#N)c(Cl)c7)CC6)nn5)C4)C3)nc1)=N[C@H](Cc1ncco1)c1nnc(C)n1-2` [I-384], the GI50 (in assay [1]; in assay [2]; with T47D cells; with VCaP cells) was over 3000 nM in each case.
With `Cc1sc2c(c1C)C(c1ccc(C[C@H]3C[C@]4(CCCN(c5ccc(C(=O)N[C@H]6CC[C@H](Oc7ccc(C#N)c(Cl)c7)CC6)nn5)C4)C3)nc1)=N[C@@H](Cc1ncco1)c1nnc(C)n1-2` [I-385], the GI50 was under 500 nM in assay [1], over 3000 nM in assay [2], 500 to 1500 nM in the assay on T47D cells and under 500 nM in the assay on VCaP cells.
As to `Cc1sc2c(c1C)C(c1ccc(N3CC(C4CCN(c5ccc(C(=O)N[C@H]6CC[C@H](Oc7ccc(C#N)c(Cl)c7)CC6)nn5)CC4)C3)cc1)=N[C@@H](Cc1ncco1)c1nnc(C)n1-2` [I-386], the GI50 (in assay [1]; in assay [2]; in the assay on T47D cells; in the assay with VCaP cells) was under 500 nM in each case.
For `Cc1sc2c(c1C)C(c1ccc(N3CC(C4CC5(C4)CN(c4ccc(C(=O)N[C@H]6CC[C@H](Oc7ccc(C#N)c(Cl)c7)CC6)nn4)C5)C3)cc1)=N[C@@H](Cc1ncco1)c1nnc(C)n1-2` [I-387], the GI50 (in assay [1]; in assay [2]; in the assay with T47D cells; in the assay on VCaP cells) was under 500 nM each time.
Regarding `Cc1sc2c(c1C)C(c1ccc(N3CCC4(CCN(c5ccc(C(=O)N[C@H]6CC[C@H](Oc7ccc(C#N)c(Cl)c7)CC6)nn5)CC4)C3)cc1)=N[C@@H](Cc1ncco1)c1nnc(C)n1-2` [I-388], the GI50 (in assay [1]; in assay [2]; in the assay with T47D cells; with VCaP cells) was under 500 nM each time.
With `[2H]C([2H])(c1ccc(C2=N[C@@H](Cc3ncco3)c3nnc(C)n3-c3sc(C)c(C)c32)cc1)N1CCC2(CCCN(c3ccc(C(=O)N[C@H]4CC[C@H](Oc5ccc(C#N)c(Cl)c5)CC4)nn3)C2)C1` (stereo partly shown) [I-389], the GI50 is under 500 nM in assay [1], 1500 to 3000 nM in assay [2], 500 to 1500 nM in the assay with T47D cells and under 500 nM in the assay with VCaP cells.
In the case of `[2H]C([2H])(c1ccc(C2=N[C@@H](Cc3ncco3)c3nnc(C)n3-c3sc(C)c(C)c32)cc1)N1CC2(CCCN(c3ccc(C(=O)N[C@H]4CC[C@H](Oc5ccc(C#N)c(Cl)c5)CC4)nn3)C2)C1` [I-390], the GI50 in assay [1] was under 500 nM; in assay [2], 500 to 1500 nM; in the assay on T47D cells it was 500 to 1500 nM; in the assay on VCaP cells it was under 500 nM.
Regarding `Cc1sc2c(c1C)C(c1ccc(C(C)(C)N3CC4(CCN(c5ccc(C(=O)N[C@H]6CC[C@H](Oc7ccc(C#N)c(Cl)c7)CC6)nn5)CC4)C3)cc1)=N[C@@H](Cc1ncco1)c1nnc(C)n1-2` [I-391], the GI50 in assay [1] is under 500 nM; in assay [2], over 3000 nM; in the assay on T47D cells it was over 3000 nM; in the assay on VCaP cells, over 3000 nM.
On to `Cc1sc2c(c1C)C(c1ccc(C(C)(C)N3CC4(CCCN(c5ccc(C(=O)N[C@H]6CC[C@H](Oc7ccc(C#N)c(Cl)c7)CC6)nn5)C4)C3)cc1)=N[C@@H](Cc1ncco1)c1nnc(C)n1-2` [I-392], for which the GI50 in assay [1] is under 500 nM; in assay [2] it was over 3000 nM; in the assay with T47D cells, over 3000 nM; in the assay with VCaP cells it was 500 to 1500 nM.
Consider `Cc1sc2c(c1C)C(c1ccc(CC(C)(C)N3CC4(CCCN(c5ccc(C(=O)N[C@H]6CC[C@H](Oc7ccc(C#N)c(Cl)c7)CC6)nn5)C4)C3)cc1)=N[C@@H](Cc1ncco1)c1nnc(C)n1-2` [I-393], for which the GI50 in assay [1] is under 500 nM; in assay [2], 1500 to 3000 nM; with T47D cells, under 500 nM; with VCaP cells, under 500 nM.
